Here are results for seven compounds from patent US9925205B2, “Compositions of multicationic drugs for reducing interactions with polyanionic biomolecules and methods of use thereof” (Insmed Incorporated, priority 2007, dated 2018).

Assay [1] in a line: Effect of mono- and multi-protonic acid salts on binding of amikacin to alginate. On the procedure: Various salts were tested for their ability to compete with alginate. Amikacin sulfate (0.1 mL of 1 mg/ml) was added to 0.4 mL solution of 1% Na Alginate and 0.5 mL solution of 200 mM Na salt of an Acid at pH 6.0. Samples were incubated 10 minutes at 37° C. and centrifuged in Centricon-10 for 30 minutes at 4000 rpm. Filtrate was diluted 2 fold with TDX buffer and analyzed for AMK.

Assay [2] is described as follows: Binding of amikacin to alginate in saline, free amikacin separated on Centricon-10 filter. Particulars: for AMKAlg (bound amikacin, AMKt-AMKf) / AMKAlg/AMKf / AMKfree: saline, no citrate; for AMKfree: total amikacin 92.5 ug/mL. On the procedure: The binding of a multicationic drug, such as amikacin, to alginate in presence salts of various (one-, two- and three-protonic) acids was tested. To study the effect of binding of amikacin to alginate, amikacin sulfate, Na citrate and Na alginate were mixed at different proportions and then free (unbound) amikacin was separated on a Cetricon-10 filtering device (MWCO 10 kD). In the absence of citrate, amikacin binds to alginate only, and the amikacin-alginate binding coefficient can be calculated from equation:
[formula] where bound amikacin can be found by subtracting free from total, and alginate free concentration is assumed to be equal to the total concentration due to excess of alginate over amikacin.
As alginate concentration increases, amikacin free measured in permeate decreases (Table 1). According to Equation 1 the ratio AMKAlg/AMKf should be proportional to the concentration of alginate, and the slope of this dependence should equal to the binding coefficient.
If one use a linear regression, the slope obtained gives us an estimate of the amikacin-alginate binding coefficient of PAlg=0.76 (mg/mL)^−1. This means that in presence of 1/PAlg˜1.3 mg/mL alginate approximately half of all amikacin will be bound to alginate.

Assay [3] is described as follows: Amikacin-citrate binding determined indirectly from competitive binding with alginate (Centricon filter). The arrangement: AMKAlg (AMKtot—AMKperm) / AMKfree / AMKcitrate: unit not given here. On the procedure: The binding of a multicationic drug, such as amikacin, to alginate in presence salts of various (one-, two- and three-protonic) acids was tested. To study the effect of binding of amikacin to alginate, amikacin sulfate, Na citrate and Na alginate were mixed at different proportions and then free (unbound) amikacin was separated on a Cetricon-10 filtering device (MWCO 10 kD). In the absence of citrate, amikacin binds to alginate only, and the amikacin-alginate binding coefficient can be calculated from equation: […]
In the presence of citrate, amikacin can bind to both alginate and citrate. The amikacin-citrate complex is not large enough to be retained by Centricon filter and will be measured as “free” amikacin, which is actually a sum of free and citrate bound amikacin. For that reason amikacin-citrate binding can not be measured directly. It can, however, be determined indirectly from competitive binding, knowing amikacin-alginate binding coefficient PAlg.
Amikacin-citrate binding coefficient was Pcit=0.076 mM^−1. Thus in the presence of 1/Pcit˜13 mM citrate the concentration of amikacin bound to citrate is approximately equal to the concentration of free amikacin. As one can see from the above data, citrate can compete for amikacin with alginate thus reducing amount of amikacin bound to alginate. 1% Alginate can reduce AMK free concentration ˜7-fold. Citrate at 40 mM reduces this effect increasing unbound AMK ˜2.5 fold.

The nature of assay [4]: Effect of pH on ability of citrate to compete with alginate for amikacin (Centricon-10, TDX). The assay is classed as binding. On the procedure:
How pH affects the ability of citrate to compete with alginate for amikacin was also tested. Here 0.5 mL sodium alginate (2%) was mixed with 0.4 mL sodium citrate (200 mM) and 0.1 mL amikacin sulfate (1 mg/mL), giving corresponding final concentrations of 1%, 80 mM, and 100 ug/mL, respectively. Two controls using either alginate or citrate alone were employed. Samples were incubated for 10 minutes at 37° C. and unbound amikacin was separated by centrifuging in Centrico-10 device for 30 minutes at 4000 rpm. Amikacin in permeate was measured by TDX (Abbott) and presented as % of total (Table 3).

Assay [5] has as its system P. Aeruginosa PAC1. The experiment in a line: In-vitro bioactivity of amikacin, modified disk Kirby-Bauer agar diffusion method. In kind it is cell-based. To be noted: for Zone size (mm): three values. The protocol:
It has been shown elsewhere […] that amikacin-alginate binding can in fact reduce amikacin bioactivity against PA. One may ask whether binding to citrate will preserve bioactivity or inhibit it similar to alginate. In order to address this, activity of amikacin against P. Aeruginosa PAC1 using modified disk Kirby-Bauer agar diffusion method was tested. […] Absence of supplements was used as a control.
Activity was determined using modified disk Kirby-Bauer agar diffusion method and PAC1 PA strain.

Assay [6] is described as follows: Effect of pH on ability of citrate to compete with alginate for amikacin (Centricon-10, TDX). The assay is classed as binding. The source holds these as a separate data set.
[7] abbreviates: 0.1 mL 1 mg/ml amikacin sulfate + 0.4 mL 1% Na Alginate + 0.5 mL 200 mM Na salt of the acid, pH 6.0, 10 minutes at 37° C.
The mark [8] stands for this setting: alginate 6 mg/mL, citrate 60 mM.
Setting [9] is: alginate 10 mg/mL, citrate 40 mM.
Setting [10] is: alginate 14 mg/mL, citrate 20 mM.
[11] abbreviates: alginate 16 mg/mL, citrate 10 mM.
Where [12] appears, read: Alginate 1%, 80 mM Citrate at pH 6-7.

“And” between values parts separate entries of the source, which are not always exact repeats. Equal values may be shown once. Where a name gives a salt, the structure may show the parent alone.

Take `CC(=O)[O-].[Na+]` [Sodium acetate]: in assay [1] (setting [7]), the “Amikacin not bound to alginate (%)” value is 11.2%. In assay [1] (as Table 4), the “effect of the salt on unbound amikacin (in words)” value is “not showing any increase in unbound amikacin”.

`O=C(O)CC(O)(CC(=O)O)C(=O)O` [Sodium citrate]: the “Amikacin not bound to alginate (%)” value in assay [1] (setting [7]) is reported as 72.1%.

Turning to `O=C([O-])CCCC(=O)[O-].[Na+].[Na+]` [Sodium glutarate], the “Amikacin not bound to alginate (%)” value in assay [1] (setting [7]) is recorded as 36.7%; in assay [1] (0.1 mL 1 mg/ml amikacin sulfate + 0.4 mL 1% Na Alginate + 0.5 mL 200 mM Na salt of the acid, pH 6.0, 10 minutes at 37° C., listed as glutarate) it was approximately 40%.

As to `O=C([O-])/C=C\C(=O)[O-].[Na+].[Na+]` [Sodium maleate], the “Amikacin not bound to alginate (%)” value in assay [1] (setting [7]) was 39.4%; in assay [1] (0.1 mL 1 mg/ml amikacin sulfate + 0.4 mL 1% Na Alginate + 0.5 mL 200 mM Na salt of the acid, pH 6.0, 10 minutes at 37° C., listed as maleate), approximately 40%.

As to `O=C([O-])CCC(=O)[O-].[Na+].[Na+]` [Sodium succinate], the “Amikacin not bound to alginate (%)” value in assay [1] (setting [7]) was 40.2%; in assay [1] (0.1 mL 1 mg/ml amikacin sulfate + 0.4 mL 1% Na Alginate + 0.5 mL 200 mM Na salt of the acid, pH 6.0, 10 minutes at 37° C., listed as succinate), approximately 40%.

For `NCC[C@H](O)C(=O)N[C@@H]1C[C@H](N)[C@@H](O[C@H]2O[C@H](CN)[C@@H](O)[C@H](O)[C@H]2O)[C@H](O)[C@H]1O[C@H]1O[C@H](CO)[C@@H](O)[C@H](N)[C@H]1O` [amikacin], the “1/PAlg, alginate concentration at which approximately half of all amikacin is bound to alginate” value in assay [2] is on record as approximately 1.3 mg/mL. In assay [2] (1% Alginate), the “reduction of AMK free concentration by alginate” value is approximately 7 fold. Also, the “AMKAlg (bound amikacin, AMKt-AMKf)” value in assay [2] (alginate 0 mg/mL) amounted to 0 µg/mL; in assay [2] (alginate 6 mg/mL) it was 72.5 µg/mL; in assay [2] (alginate 10 mg/mL), 79.9 µg/mL; in assay [2] (alginate 14 mg/mL), 84.5 µg/mL; in assay [2] (alginate 16 mg/mL), 86 µg/mL. Moreover, the AMKAlg/AMKf is on record as 0 in assay [2] (alginate 0 mg/mL); 3.63 in assay [2] (alginate 6 mg/mL); 6.34 in assay [2] (alginate 10 mg/mL); 10.56 in assay [2] (alginate 14 mg/mL); 13.23 in assay [2] (alginate 16 mg/mL). Besides, the AMKfree in assay [2] (alginate 0 mg/mL) is 92.5 µg/mL; in assay [2] (alginate 6 mg/mL), 20 µg/mL; in assay [2] (alginate 10 mg/mL), 12.6 µg/mL; in assay [2] (alginate 14 mg/mL) it was 8 µg/mL; in assay [2] (alginate 16 mg/mL) it was 6.5 µg/mL; in assay [3] (alginate 0 mg/mL, citrate 0 mM), 92.5. For the same compound, the AMKfree came to 9.01 in assay [3] (setting [8]), 8.00 in assay [3] (setting [9]), 7.27 in assay [3] (setting [10]) and 6.81 in assay [3] (setting [11]). In assay [2] (slope of AMKAlg/AMKf vs alginate concentration, linear regression), the “PAlg AMK-Alginate binding coefficient” value is given as 0.76 (mg/ml)^−1. Moreover, the “1/Pcit, citrate concentration at which amikacin bound to citrate approximately equals free amikacin” value in assay [3] was approximately 13 mM. Moreover, in assay [3] (Citrate at 40 mM, 1% Alginate), the “increase of unbound AMK by citrate” value is reported as approximately 2.5 fold. The “AMKAlg (AMKtot—AMKperm)” value in assay [3] (alginate 0 mg/mL, citrate 0 mM) is 0; in assay [3] (setting [8]), 40.9; in assay [3] (setting [9]) it was 60.5; in assay [3] (setting [10]), 77; in assay [3] (setting [11]), 82.4. For the same compound, the AMKcit/AMKf in assay [3] (alginate 0 mg/mL, citrate 0 mM) came to 0; in assay [3] (setting [8]), 4.72; in assay [3] (setting [9]) it was 3.00; in assay [3] (setting [10]) it was 1.13; in assay [3] (setting [11]), 0.48. The AMKcitrate in assay [3] (alginate 0 mg/mL, citrate 0 mM) is listed as 0; in assay [3] (setting [8]), 42.59; in assay [3] (setting [9]), 24.00; in assay [3] (setting [10]), 8.23; in assay [3] (setting [11]), 3.29. The AMKperm is 92.5 µg/mL in assay [3] (alginate 0 mg/mL, citrate 0 mM); 51.6 µg/mL in assay [3] (setting [8]); 32.0 µg/mL in assay [3] (setting [9]); 15.5 µg/mL in assay [3] (setting [10]); 10.1 µg/mL in assay [3] (setting [11]). Further, the “Pcit AMK-Citrate binding coefficient” value in assay [3] (slope of AMKcit/AMKf vs citrate concentration) turned out to be 0.076 mM⁻¹. For the same compound, the “binding capacity of alginate” value in assay [4] was “at least 0.05 mg amikacin per mg alginate”. Also, the “Amikacin not bound to alginate (%)” value in assay [4] (Alg + Citrate pH 5, alginate 1%, citrate 80 mM, amikacin 100 ug/mL) was 56.4%; in assay [4] (Alg + Citrate pH 6, alginate 1%, citrate 80 mM, amikacin 100 ug/mL), 70.4%; in assay [4] (Alg + Citrate pH 7, alginate 1%, citrate 80 mM, amikacin 100 ug/mL) it was 68.1%; in assay [4] (Alg, no Citrate, alginate 1%, amikacin 100 ug/mL), 11.9%; in assay [4] (Alg, no Citrate, alginate 1%, amikacin 100 ug/mL, listed as AMK), 12%; in assay [4] (Citrate, no Alginate) it was 100%. The “Amikacin not bound to alginate (%)” value in assay [1] (Control (no acid salt named)) is given as 17.7%; in assay [6] (Alg, no Citrate, AMK 0.5 mg/mL) it was 14.5%. In addition, the “AMK binding to alginate” value in assay [4] (setting [12]) was approximately 30%. Also, the “unbound AMK” value in assay [4] (setting [12]) is recorded as approximately 70%. Further, the “AMK bound by alginate” value in assay [4] (Alginate 1%, absence of citrate) is reported as approximately 88%. Further, the “Zone size (mm)” value in assay [5] (Alginate 1%) is 21 mm; in assay [5] (Alginate + Citrate) it was 28 mm and 29 mm; in assay [5] (Citrate 100 mM) it was 28 mm; in assay [5] (Control, MH medium without supplements) it was 28 mm and 29 mm. The “effect on activity of amikacin (in words)” value in assay [5] (Citrate at concentration 100 mM) is reported as “does not affect activity”; in assay [5] (both alginate and citrate present), “citrate actually restored activity of amikacin”. The Alginate binding efficiency in assay [6] (no citrate, total amikacin 0.5 mg/mL) amounted to 85.5%.

Consider Sodium tartarate, for which the “Amikacin not bound to alginate (%)” value in assay [1] (setting [7]) is reported as 41.4%; in assay [1] (0.1 mL 1 mg/ml amikacin sulfate + 0.4 mL 1% Na Alginate + 0.5 mL 200 mM Na salt of the acid, pH 6.0, 10 minutes at 37° C., listed as taratrate) it was approximately 40%.
